Columns and labels:
[1] = target: SMARCA2 (Homo sapiens, UniProt P51531); experiment: HiBiT assay for protein degradation, Hela SMARCA2-HiBiT cells (A series); assay type: cell-based; design: Hela cells were genetically modified via CRISPR/Cas9 to fuse HiBiT to the carboxy terminus of SMARCA2; host or cells: HeLa (CRISPR/Cas9 HiBiT knock-in); conditions: Hela SMARCA2-HiBiT cells, 24 hours treatment; for DC50: read-out: SMARC A2 Hela HiBit DC50; for Dmax: read-out: SMARC A2 Hela HiBit Dmax (%);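 for SMARC A2 Hela HiBit Dmax (%): 24 h compound treatment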
Chain of SMARCA2 (P51531 whole entry): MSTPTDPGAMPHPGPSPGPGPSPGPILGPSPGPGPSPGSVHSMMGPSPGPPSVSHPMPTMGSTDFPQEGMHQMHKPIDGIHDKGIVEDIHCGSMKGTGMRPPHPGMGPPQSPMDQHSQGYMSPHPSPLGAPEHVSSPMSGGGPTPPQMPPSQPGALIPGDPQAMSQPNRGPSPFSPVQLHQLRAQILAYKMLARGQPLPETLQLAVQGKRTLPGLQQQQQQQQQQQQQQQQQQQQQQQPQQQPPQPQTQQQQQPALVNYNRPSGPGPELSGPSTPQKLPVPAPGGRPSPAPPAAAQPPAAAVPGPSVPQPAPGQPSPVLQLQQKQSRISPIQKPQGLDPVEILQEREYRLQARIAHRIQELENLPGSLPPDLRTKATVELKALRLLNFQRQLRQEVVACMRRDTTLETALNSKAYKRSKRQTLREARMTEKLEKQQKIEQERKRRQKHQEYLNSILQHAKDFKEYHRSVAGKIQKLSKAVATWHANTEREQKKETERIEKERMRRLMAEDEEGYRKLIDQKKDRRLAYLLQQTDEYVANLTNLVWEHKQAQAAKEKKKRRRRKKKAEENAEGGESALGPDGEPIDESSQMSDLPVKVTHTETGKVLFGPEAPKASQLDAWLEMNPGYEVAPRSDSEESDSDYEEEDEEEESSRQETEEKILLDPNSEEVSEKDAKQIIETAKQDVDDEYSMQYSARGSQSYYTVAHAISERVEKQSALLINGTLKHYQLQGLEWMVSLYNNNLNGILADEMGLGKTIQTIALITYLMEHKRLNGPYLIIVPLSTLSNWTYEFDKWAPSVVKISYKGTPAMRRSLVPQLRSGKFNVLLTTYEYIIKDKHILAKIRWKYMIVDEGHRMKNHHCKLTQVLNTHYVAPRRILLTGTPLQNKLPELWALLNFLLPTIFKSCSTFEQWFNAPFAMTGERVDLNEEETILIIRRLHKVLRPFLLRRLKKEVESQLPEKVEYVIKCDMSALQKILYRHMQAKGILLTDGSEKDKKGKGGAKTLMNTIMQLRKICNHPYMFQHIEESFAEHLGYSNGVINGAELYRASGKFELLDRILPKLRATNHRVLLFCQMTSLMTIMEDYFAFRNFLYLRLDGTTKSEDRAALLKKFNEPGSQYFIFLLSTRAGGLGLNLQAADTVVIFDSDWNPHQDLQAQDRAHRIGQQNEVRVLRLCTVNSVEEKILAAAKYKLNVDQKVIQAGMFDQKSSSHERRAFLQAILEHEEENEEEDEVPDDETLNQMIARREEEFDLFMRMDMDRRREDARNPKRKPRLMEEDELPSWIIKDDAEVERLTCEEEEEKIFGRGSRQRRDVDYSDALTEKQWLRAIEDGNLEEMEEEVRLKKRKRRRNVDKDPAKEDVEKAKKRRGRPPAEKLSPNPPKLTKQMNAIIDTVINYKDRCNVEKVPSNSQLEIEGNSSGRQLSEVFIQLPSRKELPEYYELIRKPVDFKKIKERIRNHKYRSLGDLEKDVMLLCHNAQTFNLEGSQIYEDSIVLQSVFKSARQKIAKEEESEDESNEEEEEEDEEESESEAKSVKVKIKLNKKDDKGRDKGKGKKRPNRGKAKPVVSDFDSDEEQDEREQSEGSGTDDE
How it was run: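 SMARCA2 degradation was measured in HeLa cells whose endogenous SMARCA2 carries a carboxy-terminal HiBiT tag introduced by CRISPR/Cas9 (Promega CS302365). Cells were maintained in DMEM with FBS and penicillin-streptomycin. SMARCA2 levels were read at the end of the experiment by Nano-Glo® HiBiT lytic luminescence (Promega N3050) and analyzed in GraphPad Prism.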

[2] = target: SMARCA4 (Homo sapiens, UniProt P51532); experiment: HiBiT assay for protein degradation, Hela SMARCA4-HiBiT cells (A series); assay type: cell-based; design: fuse HiBiT to the carboxy terminus of SMARCA2 (Promega CS302365) or SMARCA4 (Promega CS3023225); host or cells: HeLa (CRISPR/Cas9 HiBiT knock-in); conditions: Hela SMARCA4-HiBiT cells, 24 hours treatment; for DC50: read-out: SMARC A4 Hela HiBit DC50; for Dmax: read-out: SMARC A4 Hela HiBit Dmax
Chain of SMARCA4 (P51532 whole entry): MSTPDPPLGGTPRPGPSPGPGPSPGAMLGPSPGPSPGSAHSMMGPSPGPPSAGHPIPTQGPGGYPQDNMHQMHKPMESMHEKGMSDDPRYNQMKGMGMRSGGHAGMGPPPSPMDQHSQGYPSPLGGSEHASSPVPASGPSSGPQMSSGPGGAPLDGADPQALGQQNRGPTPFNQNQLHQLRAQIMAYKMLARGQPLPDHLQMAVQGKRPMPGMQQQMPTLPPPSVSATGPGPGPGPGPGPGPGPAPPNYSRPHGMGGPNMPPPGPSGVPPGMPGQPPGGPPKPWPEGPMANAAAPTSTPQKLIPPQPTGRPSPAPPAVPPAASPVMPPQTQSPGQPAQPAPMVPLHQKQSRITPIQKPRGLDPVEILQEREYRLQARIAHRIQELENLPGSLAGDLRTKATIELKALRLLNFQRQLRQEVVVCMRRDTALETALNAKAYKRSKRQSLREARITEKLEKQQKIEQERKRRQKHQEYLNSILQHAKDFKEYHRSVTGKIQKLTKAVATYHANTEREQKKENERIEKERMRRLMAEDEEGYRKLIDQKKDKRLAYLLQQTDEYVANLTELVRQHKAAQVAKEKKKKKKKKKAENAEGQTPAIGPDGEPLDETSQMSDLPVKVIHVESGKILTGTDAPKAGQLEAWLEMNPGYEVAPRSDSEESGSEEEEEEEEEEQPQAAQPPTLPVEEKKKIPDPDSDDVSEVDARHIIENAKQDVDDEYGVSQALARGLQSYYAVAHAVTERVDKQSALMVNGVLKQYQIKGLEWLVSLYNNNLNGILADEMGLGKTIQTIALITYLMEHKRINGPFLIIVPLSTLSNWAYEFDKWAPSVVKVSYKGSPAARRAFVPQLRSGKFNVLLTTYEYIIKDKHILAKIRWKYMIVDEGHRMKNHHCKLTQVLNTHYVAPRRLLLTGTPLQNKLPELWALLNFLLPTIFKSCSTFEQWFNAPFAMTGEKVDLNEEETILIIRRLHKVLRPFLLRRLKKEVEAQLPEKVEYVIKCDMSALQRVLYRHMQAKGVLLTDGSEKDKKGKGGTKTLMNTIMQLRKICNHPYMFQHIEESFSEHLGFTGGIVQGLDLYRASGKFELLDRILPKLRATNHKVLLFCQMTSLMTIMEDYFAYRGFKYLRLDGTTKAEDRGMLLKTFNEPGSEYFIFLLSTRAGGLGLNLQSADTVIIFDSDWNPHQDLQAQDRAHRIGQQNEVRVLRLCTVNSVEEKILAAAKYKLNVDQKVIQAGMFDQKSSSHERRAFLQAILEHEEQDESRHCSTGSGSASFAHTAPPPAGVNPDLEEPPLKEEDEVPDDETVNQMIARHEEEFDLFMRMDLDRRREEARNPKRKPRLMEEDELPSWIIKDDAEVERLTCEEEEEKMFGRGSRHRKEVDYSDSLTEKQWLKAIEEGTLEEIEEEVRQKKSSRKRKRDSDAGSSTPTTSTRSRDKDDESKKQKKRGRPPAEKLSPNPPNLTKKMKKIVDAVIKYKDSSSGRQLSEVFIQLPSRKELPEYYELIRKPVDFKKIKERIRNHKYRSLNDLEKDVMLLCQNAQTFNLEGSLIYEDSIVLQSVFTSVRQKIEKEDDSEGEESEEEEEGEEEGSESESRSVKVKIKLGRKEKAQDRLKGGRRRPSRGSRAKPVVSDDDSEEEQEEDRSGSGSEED
How it was run: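 SMARCA4 degradation was measured in HeLa cells in which HiBiT had been knocked into the SMARCA4 carboxy terminus via CRISPR/Cas9 (Promega CS3023225). Cells were maintained in DMEM with FBS and penicillin-streptomycin. At the end of treatment, SMARCA4 levels were read by lytic HiBiT luminescence (Nano-Glo®, Promega N3050), and data were analyzed with GraphPad Prism.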

[3] = system: SMARCA4-deficient cancer cell lines; conditions: pharmacological studies; cited from earlier work

With CC(C)(C)[C@@H](C(=O)N1C[C@H](O)C[C@H]1C(=O)N[C@@H](CN1CCOCC1)c1ccc(-c2cccnc2)cc1)n1cc([C@H]2CC[C@H](CN3CCC(c4ccc5c(c4)-n4c(nc(=O)c6c(Cl)cccc64)C54CCCCC4)CC3)CC2)nn1 [Compound A171, (2S,4R)-1-((S)-2-(4-((1r,4S)-4-((4-(4′-chloro-5′-oxo-5′H-spiro[cyclohexane-1,7′-indolo[1,2-a]quinazolin]-10′-yl)piperidin-1-yl)methyl)cyclohexyl)-1H-1,2,3-triazol-1-yl)-3,3-dimethylbutanoyl)-4-hydroxy-N—((R)-2-morpholino-1-(4-(pyridin-3-yl)phenyl)ethyl)pyrrolidine-2-carboxamide] the DC50 [1] was < 10 nM, the Dmax [1] was > 90% and the DC50 [2] was 100 to 1000 nM. The Dmax [2] was 50 to 69%.
With CC(C)(C)[C@@H](C(=O)N1C[C@H](O)C[C@H]1C(=O)N[C@@H](CN1CCOCC1)c1ccc(-c2ccncc2)cc1)n1cc([C@H]2CC[C@H](CN3CCC(c4ccc5c(c4)-n4c(nc(=O)c6c(Cl)cccc64)C54CCCCC4)CC3)CC2)nn1 [Compound A172, (2S,4R)-1-((S)-2-(4-((1r,4S)-4-((4-(4′-chloro-5′-oxo-5′H-spiro[cyclohexane-1,7′-indolo[1,2-a]quinazolin]-10′-yl)piperidin-1-yl)methyl)cyclohexyl)-1H-1,2,3-triazol-1-yl)-3,3-dimethylbutanoyl)-4-hydroxy-N—((R)-2-morpholino-1-(4-(pyridin-4-yl)phenyl)ethyl)pyrrolidine-2-carboxamide] the DC50 [1] was < 10 nM, the Dmax [1] was > 90% and the DC50 [2] was > 1000 nM. For the same molecule, the Dmax [2] was < 50%.
For CC(C)(C)[C@@H](C(=O)N1C[C@H](O)C[C@H]1C(=O)N[C@@H](CN1CCOCC1)c1ccc(-c2ccccn2)cc1)n1cc([C@H]2CC[C@H](CN3CCC(c4ccc5c(c4)-n4c(nc(=O)c6c(Cl)cccc64)C54CCCCC4)CC3)CC2)nn1 [Compound A173, (2S,4R)-1-((S)-2-(4-((1r,4S)-4-((4-(4′-chloro-5′-oxo-5′H-spiro[cyclohexane-1,7′-indolo[1,2-a]quinazolin]-10′-yl)piperidin-1-yl)methyl)cyclohexyl)-1H-1,2,3-triazol-1-yl)-3,3-dimethylbutanoyl)-4-hydroxy-N—((R)-2-morpholino-1-(4-(pyridin-2-yl)phenyl)ethyl)pyrrolidine-2-carboxamide], the DC50 [1] was < 10 nM, the Dmax [1] was > 90% and the DC50 [2] was > 1000 nM. The Dmax [2] was < 50%.
With Cc1ncccc1-c1ccc([C@H](CN2CCOCC2)NC(=O)[C@@H]2C[C@@H](O)CN2C(=O)[C@@H](n2cc([C@H]3CC[C@H](CN4CCC(c5ccc6c(c5)-n5c(nc(=O)c7c(Cl)cccc75)C65CCCCC5)CC4)CC3)nn2)C(C)(C)C)cc1 [Compound A174, (2S,4R)-1-((S)-2-(4-((1r,4S)-4-((4-(4′-chloro-5′-oxo-5′H-spiro[cyclohexane-1,7′-indolo[1,2-a]quinazolin]-10′-yl)piperidin-1-yl)methyl)cyclohexyl)-1H-1,2,3-triazol-1-yl)-3,3-dimethylbutanoyl)-4-hydroxy-N—((R)-1-(4-(2-methylpyridin-3-yl)phenyl)-2-morpholinoethyl)pyrrolidine-2-carboxamide] the DC50 [1] was < 10 nM, the Dmax [1] was > 90% and the DC50 [2] was > 1000 nM. For the same molecule, the Dmax [2] was < 50%.
In the case of Cc1ccncc1-c1ccc([C@H](CN2CCOCC2)NC(=O)[C@@H]2C[C@@H](O)CN2C(=O)[C@@H](n2cc([C@H]3CC[C@H](CN4CCC(c5ccc6c(c5)-n5c(nc(=O)c7c(Cl)cccc75)C65CCCCC5)CC4)CC3)nn2)C(C)(C)C)cc1 [Compound A175], the DC50 [1] is reported as < 10 nM, the Dmax [1] is reported as > 90% and the DC50 [2] is reported as > 1000 nM. For the same molecule, the Dmax [2] was < 50%.
For O=C(/C=C/N1C[C@H]2C[C@@H]1CN2c1ccccn1)c1ccccc1O [PFI-3], the antiproliferative phenotype [3] is given as “fail to display an antiproliferative phenotype”.
